From patent US20230034248A1, “PLANT STOMATA OPENING PROMOTING AGENT” (OAT Agrio Co., Ltd., priority 2019, published 2023)

Tested on: tomato seedlings
Assay: Abscisic acid-induced stomatal closure inhibitory activity, second evaluation (foliar spray, ratio of open stomata)
Format: in vivo, tomato (cultivar: Ponderosa)
Details: for ratio of open stomata as compared to without the addition (student's t-test) / ratio of open stomata as compared to without the addition: 30 μM abscisic acid
Protocol: (§1) On Jun. 31, 2018, a seedling pot (Bee pot Y-55, manufactured by CANELON C.E) was filled with the culture soil, Kumiai Gardening Seedling Culture Soil AISAI No. 1 (manufactured by Katakura & Co-op Agri Corporation), to be level with the upper side of the pot. Two seeds of tomato (cultivar: Ponderosa) were planted in each pot, and the seedling pot was placed in a climate chamber (25° C., dark period/bright period: 11 h/13 h, bright period: 6:00 a.m. to 19:00 p.m.) at the Cultivation Research Center of OAT Agrio Co., Ltd. Water was supplied from the bottom of the pot, and plants were selected at the time of cotyledon development. At 8:30 a.m. on August 21, chemical solutions each prepared by dissolving 100 ppm of Tween (registered trademark) 80, 30 μM of abscisic acid, and 0 (Comparative Example 12), 100, 300, or 500 μM of steviol were sprayed evenly onto above-ground parts of crops grown to a plant age of about 4 in leaf number. At 11:30 a.m. and 16:00 p.m. on the same day, stomata on the underside of the top leaflet of the second leaf of crops were sampled on a cover glass with an instant adhesive (instant bond for general use AronAlpha (registered trademark) manufactured by TOAGOSEI CO., LTD.) thereon to prepare samples for stomatal observation. These samples were observed under a microscope (magnification 1,000×) to count the number of open or closed stomata in 100 or more stomata, and the ratio of open stomata was calculated according to the following equation:
ratio (%) of open stomata=100×(number of open stomata)/(total number of investigated stomata) (Equation)
(§2) The investigations were made in quadruplicate for each treatment condition. A significance test was performed by student's t-test on the ratio of open stomata obtained from the investigation of each individual plant against the ratio of open stomata obtained for the plot without the addition of steviol (0 μm: Comparative Example 12).
as §1, with “Feb. 27,” for “Jun. 31,”, “March 15,” for “August 21,”, “13),” for “12), 100,”, “stevioside” for “steviol”, “3” for “4”, “equation: […]” for “equation:”
as §2, with “stevioside” for “steviol”, “13).” for “12).”
On Mar. […]

[1] = 100 μM with 30 μM abscisic acid, sprayed 8:30, Time (11:30)
[2] = 300 μM with 30 μM abscisic acid, sprayed 8:30, Time (11:30)
[3] = 500 μM with 30 μM abscisic acid, sprayed 8:30, Time (11:30)
[4] = every addition concentration (100, 300, 500 μM) and every investigation time
[5] = 300 μM with 30 μM abscisic acid, sprayed 8:30, Time (16:00)
[6] = 500 μM with 30 μM abscisic acid, sprayed 8:30, Time (16:00)

Structure (SMILES): C=C1C[C@@]23CC[C@H]4[C@@](C)(CCC[C@@]4(C)C(=O)O[C@@H]4O[C@H](CO)[C@@H](O)[C@H](O)[C@H]4O)[C@@H]2CC[C@]1(O[C@@H]1O[C@H](CO)[C@@H](O)[C@H](O[C@@H]2O[C@H](CO)[C@@H](O)[C@H](O)[C@H]2O)[C@H]1O[C@@H]1O[C@H](CO)[C@@H](O)[C@H](O)[C@H]1O)C3 [rebaudioside A]
- Ratio (%) of Open Stomata [1]: 56.6 ± 5.8%
- Ratio (%) of Open Stomata (100 μM with 30 μM abscisic acid, sprayed 8:30, Time (16:30)): 50.0 ± 3.2%
- Ratio (%) of Open Stomata [2]: 58.6 ± 4.6%
- Ratio (%) of Open Stomata (300 μM with 30 μM abscisic acid, sprayed 8:30, Time (16:30)): 51.2 ± 2.1%
- Ratio (%) of Open Stomata [3]: 56.5 ± 3.8%
- Ratio (%) of Open Stomata (500 μM with 30 μM abscisic acid, sprayed 8:30, Time (16:30)): 54.0 ± 6.6%
- ratio of open stomata as compared to without the addition (student's t-test) (300 and 500 μM): statistically significant improvement in the ratio of open stomata
- ratio of open stomata as compared to without the addition [4]: an improvement in the ratio of open stomata

Structure (SMILES): C=C1C[C@@]23CC[C@H]4[C@@](C)(CCC[C@@]4(C)C(=O)O)[C@@H]2CC[C@]1(O)C3 [steviol]
- Ratio (%) of Open Stomata [1]: 69.0 ± 5.5%
- Ratio (%) of Open Stomata (100 μM with 30 μM abscisic acid, sprayed 8:30, Time (16:00)): 69.3 ± 3.5%
- Ratio (%) of Open Stomata [2]: 62.7 ± 2.5%
- Ratio (%) of Open Stomata [5]: 61.9 ± 4.6%
- Ratio (%) of Open Stomata [3]: 60.1 ± 7.5%
- Ratio (%) of Open Stomata [6]: 62.5 ± 6.8%
- ratio of open stomata as compared to without the addition (student's t-test) [4]: statistically significant improvement in the ratio of open stomata

Structure (SMILES): C=C1C[C@@]23CC[C@H]4[C@@](C)(CCC[C@@]4(C)C(=O)O[C@@H]4O[C@H](CO)[C@@H](O)[C@H](O)[C@H]4O)[C@@H]2CC[C@]1(O[C@@H]1O[C@H](CO)[C@@H](O)[C@H](O)[C@H]1O[C@@H]1O[C@H](CO)[C@@H](O)[C@H](O)[C@H]1O)C3 [stevioside]
- Ratio (%) of Open Stomata [2]: 65.1 ± 6.4%
- Ratio (%) of Open Stomata [5]: 58.0 ± 4.2%
- Ratio (%) of Open Stomata [3]: 45.7 ± 2.7%
- Ratio (%) of Open Stomata [6]: 54.6 ± 3.8%
- ratio of open stomata as compared to without the addition (student's t-test) (addition concentrations and investigation times other than 500 μM at 11:30 a.m.): statistically significant improvement in the ratio of open stomata
- ratio of open stomata as compared to without the addition (every addition concentration (300, 500 μM) and every investigation time): an improvement in the ratio of open stomata
